Assay results: ChEMBL document CHEMBL3739332, “γ- and δ-Lactams from the Leaves of Clausena lansium” (2015)
The source made the active and inactive calls. The rule behind the calls is not given here.

What was measured:
[1] = test system: Cortical neurone; test: Neuroprotective activity in Sprague-Dawley rat cortical neurons assessed as inhibition of amyloid beta (25 to 35 residues)-induced neurotoxicity compound pretreated at 10 to 50 uM for 2 hrs followed by addition of 10 uM amyloid beta (25 to 35 residues) for 40 hrs by MTT assay; type: functional
[2] = Neuroprotective activity in Sprague-Dawley rat cortical neurons assessed as inhibition of amyloid beta (25 to 35 residues)-induced neurotoxicity compound pretreated at 50 uM for 2 hrs followed by addition of 10 uM amyloid beta (25 to 35 residues) for 40 hrs by MTT assay; type: functional, Cortical neurone

Row | Structure (SMILES) | inhibition [1] | inhibition (INH) [2] [%]
1 | CO[C@H](c1ccccc1)[C@@H]1[C@@H](c2ccccc2)[C@H](O)C(=O)N1C | inactive | 
2 | CO[C@H](c1ccccc1)[C@H]1[C@H](c2ccccc2)[C@H](O)C(=O)N1C | inactive | 
3 | CO[C@@H](c1ccccc1)[C@@H]1[C@@H](c2ccccc2)[C@H](O)C(=O)N1C |  | 22.24
